Dmax, remaining activity and DC50 data for 29 compounds are collected here from patent US11787785B2 (NOVARTIS AG, priority 2021, dated 2023).

A value given as a limit tells only on which side of the number the result lay.

The test has as its target T1, WIZ protein (HiBit-WIZ fusion protein) (Homo sapiens, UniProt O95785+Q96SW2).
T1 construct: expressed in transfected cells
Kind of test: Quantification of WIZ protein levels in HiBit tag fusion protein assay (WIZ HiBit assay in 293T cells). To be noted: for Dmax at 25 µM / remaining activity at 25 µM: HEK-293T, 293T cells; for Dmax at 25 µM: 100 − Amax, read-out: % degradation of WIZ (100 − Amax); for remaining activity at 25 µM: DMSO-normalized, curve-fitted percentage of WIZ-HiBit remaining at 25 uM, read-out: WIZ Amax; for DC50: WIZ HiBit assay in 293T cells, 10-point, 5-fold dose response, highest concentration 25 μM, about 18 hours, read-out: WIZ AC50. Format: cell-based. Put shortly:
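HiBit-tagged WIZ (N-terminal tag, HSVTK promoter) stably expressed single-copy in 293T cells; 10-point 1:5 compound series, top 25 μM, ~18 h at 37 °C. Lytic HiBit/LgBit luminescence read; Amax = curve-fitted % WIZ-HiBit remaining at 25 μM, DMSO normalized to 100%.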

T1 sequence (O95785 whole entry, the tested form may be a part): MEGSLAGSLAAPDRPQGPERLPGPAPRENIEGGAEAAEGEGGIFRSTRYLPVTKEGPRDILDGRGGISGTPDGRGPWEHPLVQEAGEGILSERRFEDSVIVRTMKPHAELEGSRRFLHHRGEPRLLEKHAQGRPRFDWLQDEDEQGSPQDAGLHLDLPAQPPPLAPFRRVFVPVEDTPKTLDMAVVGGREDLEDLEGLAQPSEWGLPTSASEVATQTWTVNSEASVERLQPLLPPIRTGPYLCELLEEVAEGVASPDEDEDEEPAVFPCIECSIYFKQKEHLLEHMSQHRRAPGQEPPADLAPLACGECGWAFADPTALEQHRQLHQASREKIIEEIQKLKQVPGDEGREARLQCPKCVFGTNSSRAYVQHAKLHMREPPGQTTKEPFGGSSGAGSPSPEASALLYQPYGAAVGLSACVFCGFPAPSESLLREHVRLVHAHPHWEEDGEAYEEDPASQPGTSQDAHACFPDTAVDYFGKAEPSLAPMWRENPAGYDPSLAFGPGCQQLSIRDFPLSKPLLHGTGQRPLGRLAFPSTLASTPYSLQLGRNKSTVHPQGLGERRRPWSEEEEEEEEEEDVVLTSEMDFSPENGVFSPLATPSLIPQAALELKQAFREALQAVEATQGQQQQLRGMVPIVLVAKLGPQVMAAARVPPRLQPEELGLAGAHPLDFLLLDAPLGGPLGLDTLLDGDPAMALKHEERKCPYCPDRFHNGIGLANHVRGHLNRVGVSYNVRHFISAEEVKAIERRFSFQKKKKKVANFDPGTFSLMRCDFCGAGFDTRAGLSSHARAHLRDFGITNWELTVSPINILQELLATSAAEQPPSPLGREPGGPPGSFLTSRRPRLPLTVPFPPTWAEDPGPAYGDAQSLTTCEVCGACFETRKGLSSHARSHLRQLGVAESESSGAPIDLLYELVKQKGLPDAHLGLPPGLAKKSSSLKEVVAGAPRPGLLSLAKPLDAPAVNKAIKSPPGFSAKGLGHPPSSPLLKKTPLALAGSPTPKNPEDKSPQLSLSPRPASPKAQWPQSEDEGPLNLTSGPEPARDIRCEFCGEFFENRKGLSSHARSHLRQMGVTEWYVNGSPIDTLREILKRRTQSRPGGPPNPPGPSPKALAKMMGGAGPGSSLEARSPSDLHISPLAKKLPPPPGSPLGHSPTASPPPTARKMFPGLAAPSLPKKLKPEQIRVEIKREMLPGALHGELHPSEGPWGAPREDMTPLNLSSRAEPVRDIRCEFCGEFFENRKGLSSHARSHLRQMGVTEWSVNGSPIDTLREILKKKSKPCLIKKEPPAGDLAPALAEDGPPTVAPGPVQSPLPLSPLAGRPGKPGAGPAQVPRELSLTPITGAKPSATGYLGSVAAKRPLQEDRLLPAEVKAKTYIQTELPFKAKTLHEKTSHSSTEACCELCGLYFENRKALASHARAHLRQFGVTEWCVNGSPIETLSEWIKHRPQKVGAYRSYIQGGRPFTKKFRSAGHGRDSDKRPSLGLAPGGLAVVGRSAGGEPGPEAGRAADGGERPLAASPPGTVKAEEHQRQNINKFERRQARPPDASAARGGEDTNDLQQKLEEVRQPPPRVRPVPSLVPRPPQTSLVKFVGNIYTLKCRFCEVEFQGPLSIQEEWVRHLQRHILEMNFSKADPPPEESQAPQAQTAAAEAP
T1 sequence (Q96SW2 whole entry, the tested form may be a part): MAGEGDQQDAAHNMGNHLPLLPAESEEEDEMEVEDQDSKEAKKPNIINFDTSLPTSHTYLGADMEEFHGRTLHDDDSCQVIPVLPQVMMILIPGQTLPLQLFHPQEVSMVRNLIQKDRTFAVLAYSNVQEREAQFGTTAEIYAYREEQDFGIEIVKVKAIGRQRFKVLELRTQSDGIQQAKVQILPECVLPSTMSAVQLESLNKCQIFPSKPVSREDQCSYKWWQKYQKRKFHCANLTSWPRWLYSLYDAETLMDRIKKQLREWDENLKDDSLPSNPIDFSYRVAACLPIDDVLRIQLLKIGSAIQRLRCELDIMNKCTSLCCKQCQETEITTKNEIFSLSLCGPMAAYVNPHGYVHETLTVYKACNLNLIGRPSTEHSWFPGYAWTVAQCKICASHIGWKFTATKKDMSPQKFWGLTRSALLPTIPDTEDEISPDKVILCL
T1 sequence (Q16531 whole entry partner, the tested form may be a part): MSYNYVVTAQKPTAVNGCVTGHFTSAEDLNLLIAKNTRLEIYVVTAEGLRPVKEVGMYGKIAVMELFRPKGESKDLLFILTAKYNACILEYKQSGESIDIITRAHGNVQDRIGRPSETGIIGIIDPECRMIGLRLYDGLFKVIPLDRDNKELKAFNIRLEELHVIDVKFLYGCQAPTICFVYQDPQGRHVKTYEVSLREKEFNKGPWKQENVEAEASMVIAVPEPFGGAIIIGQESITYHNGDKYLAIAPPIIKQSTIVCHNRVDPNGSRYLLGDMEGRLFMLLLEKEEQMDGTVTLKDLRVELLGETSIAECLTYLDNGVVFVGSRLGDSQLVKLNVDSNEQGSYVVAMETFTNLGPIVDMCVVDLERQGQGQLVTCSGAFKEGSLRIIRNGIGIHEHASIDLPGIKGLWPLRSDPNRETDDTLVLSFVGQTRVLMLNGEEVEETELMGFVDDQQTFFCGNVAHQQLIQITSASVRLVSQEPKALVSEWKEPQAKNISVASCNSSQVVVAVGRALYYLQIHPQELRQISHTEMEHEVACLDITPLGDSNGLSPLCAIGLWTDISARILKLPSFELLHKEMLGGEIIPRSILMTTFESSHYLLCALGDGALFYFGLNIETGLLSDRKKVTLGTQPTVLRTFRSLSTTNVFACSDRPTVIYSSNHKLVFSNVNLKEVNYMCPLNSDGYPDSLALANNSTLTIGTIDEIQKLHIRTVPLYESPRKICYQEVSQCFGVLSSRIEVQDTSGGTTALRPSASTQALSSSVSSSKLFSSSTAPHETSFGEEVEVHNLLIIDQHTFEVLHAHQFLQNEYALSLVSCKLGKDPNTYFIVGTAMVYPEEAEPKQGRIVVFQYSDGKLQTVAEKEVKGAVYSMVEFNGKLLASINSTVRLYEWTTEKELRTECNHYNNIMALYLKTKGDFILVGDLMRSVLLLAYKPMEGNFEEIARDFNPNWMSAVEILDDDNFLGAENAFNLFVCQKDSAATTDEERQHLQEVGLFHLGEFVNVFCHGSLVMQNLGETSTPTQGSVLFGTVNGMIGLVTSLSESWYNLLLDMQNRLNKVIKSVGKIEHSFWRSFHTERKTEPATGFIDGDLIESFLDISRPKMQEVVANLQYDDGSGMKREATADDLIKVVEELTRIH

With `CC(C)(C)CN1CCC(Cc2ccn3ncc(N4CCC(=O)NC4=O)c3c2)CC1` [Example 110], the Dmax at 25 µM turned out to be 79%, the remaining activity at 25 µM is 21% and the DC50 amounted to 44 nM.
Regarding `O=C1CCN(c2cnn3ccc(CC4CCN(Cc5ccccn5)CC4)cc23)C(=O)N1` [Example 111], the Dmax at 25 µM was determined as 56%, the remaining activity at 25 µM turned out to be 44% and the DC50 was determined as 304 nM.
Consider `O=C1CCN(c2cnn3ccc(CC4CCN(CC(F)(F)C5CCCCC5)CC4)cc23)C(=O)N1` [Example 112, 1-(5-((1-(2-cyclohexyl-2,2-difluoroethyl)piperidin-4-yl)methyl)pyrazolo[1,5-a]pyridin-3-yl)dihydropyrimidine-2,4(1H,3H)-dione], for which the Dmax at 25 µM was 66%, the remaining activity at 25 µM was determined as 34% and the DC50 was 16 nM.
The like results for `C[C@@H]1CC(CN2CCC(Cc3ccn4ncc(N5CCC(=O)NC5=O)c4c3)CC2)C[C@H](C)O1` (stereo partly drawn) [Example 113] were, in that order, 88%, 12% and 4 nM.
`Cn1nccc1CN1CCC(Cc2ccn3ncc(N4CCC(=O)NC4=O)c3c2)CC1` [Example 114]: the Dmax at 25 µM was 68%, the remaining activity at 25 µM stood at 32% and the DC50 came to 90 nM.
`O=C1CCN(c2cnn3ccc(CC4CCN(Cc5cscn5)CC4)cc23)C(=O)N1` [Example 115]: the Dmax at 25 µM is 54%, the remaining activity at 25 µM was determined as 46% and the DC50 was determined as 267 nM.
`Cn1cnc(CN2CCC(Cc3ccn4ncc(N5CCC(=O)NC5=O)c4c3)CC2)c1` [Example 116]: the Dmax at 25 µM amounted to 39%, the remaining activity at 25 µM was found to be 61% and the DC50 was determined as 1700 nM.
As to `O=C1CCN(c2cnn3ccc(CC4CCN(CC56CC7CC(CC(C7)C5)C6)CC4)cc23)C(=O)N1` [Example 117], the Dmax at 25 µM was 90%, the remaining activity at 25 µM was 10% and the DC50 is 1 nM.
With `CC1(CN2CCC(Cc3ccn4ncc(N5CCC(=O)NC5=O)c4c3)CC2)COC1` [Example 118, 1-(5-((1-((3-methyloxetan-3-yl)methyl)piperidin-4-yl)methyl)pyrazolo[1,5-a]pyridin-3-yl)dihydropyrimidine-2,4(1H,3H)-dione], the Dmax at 25 µM is 64%, the remaining activity at 25 µM was determined as 36% and the DC50 was determined as 166 nM.
The like results for `O=C1CCN(c2cnn3ccc(CC4CCN(CC5COC5)CC4)cc23)C(=O)N1` [Example 119, 1-(5-((1-(oxetan-3-ylmethyl)piperidin-4-yl)methyl)pyrazolo[1,5-a]pyridin-3-yl)dihydropyrimidine-2,4(1H,3H)-dione] were, in that order, 82%, 18% and 109 nM.
For the compound `O=C1CCN(c2cnn3ccc(CC4CCN(CCc5c[nH]cn5)CC4)cc23)C(=O)N1` [Example 120, 1-(5-((1-(2-(1H-imidazol-4-yl)ethyl)piperidin-4-yl)methyl)pyrazolo[1,5-a]pyridin-3-yl)dihydropyrimidine-2,4(1H,3H)-dione], the Dmax at 25 µM was determined as 66%, the remaining activity at 25 µM came out at 34% and the DC50 is 1430 nM.
The like results for `O=C1CCN(c2cnn3ccc(CC4CCN(CC(CO)CO)CC4)cc23)C(=O)N1` [Example 121, 1-(5-((1-(3-hydroxy-2-(hydroxymethyl)propyl)piperidin-4-yl)methyl)pyrazolo[1,5-a]pyridin-3-yl)dihydropyrimidine-2,4(1H,3H)-dione] were, in that order, 50%, 50% and above 25000 nM.
Take `COc1ccccc1CN1CCC(Cc2ccn3ncc(N4CCC(=O)NC4=O)c3c2)CC1` [Example 122, 1-(5-((1-(2-methoxybenzyl)piperidin-4-yl)methyl)pyrazolo[1,5-a]pyridin-3-yl)dihydropyrimidine-2,4(1H,3H)-dione]: the Dmax at 25 µM was found to be 55%, the remaining activity at 25 µM came out at 45% and the DC50 was found to be 2580 nM.
Take `O=C1CCN(c2cnn3ccc(CC4(F)CCN(CC5CCCCC5)CC4)cc23)C(=O)N1` [Example 123, 1-(5-((1-(cyclohexylmethyl)-4-fluoropiperidin-4-yl)methyl)pyrazolo[1,5-a]pyridin-3-yl)dihydropyrimidine-2,4(1H,3H)-dione]: the Dmax at 25 µM turned out to be 68%, the remaining activity at 25 µM stood at 32% and the DC50 came to 95 nM.
Regarding `CC(C)CN1CCC(F)(Cc2ccn3ncc(N4CCC(=O)NC4=O)c3c2)CC1` [Example 124, 1-(5-((4-fluoro-1-isobutylpiperidin-4-yl)methyl)pyrazolo[1,5-a]pyridin-3-yl)dihydropyrimidine-2,4(1H,3H)-dione], the Dmax at 25 µM came out at 58%, the remaining activity at 25 µM stood at 42% and the DC50 amounted to 502 nM.
In the case of `O=C1CCN(c2cnn3ccc(CC4(F)CCN(CC5CCC5)CC4)cc23)C(=O)N1` [Example 125, 1-(5-((1-(cyclobutylmethyl)-4-fluoropiperidin-4-yl)methyl)pyrazolo[1,5-a]pyridin-3-yl)dihydropyrimidine-2,4(1H,3H)-dione], the Dmax at 25 µM amounted to 55%, the remaining activity at 25 µM was 45% and the DC50 was determined as 596 nM.
`O=C1CCN(c2cnn3ccc(CC4(F)CCN(Cc5ccccc5)CC4)cc23)C(=O)N1` [Example 126, 1-(5-((1-benzyl-4-fluoropiperidin-4-yl)methyl)pyrazolo[1,5-a]pyridin-3-yl)dihydropyrimidine-2,4(1H,3H)-dione]: the Dmax at 25 µM worked out at 35%, the remaining activity at 25 µM stood at 65% and the DC50 turned out to be 290 nM.
`Cc1c(CC2CCN(CC3CCCCC3)CC2)ccn2ncc(N3CCC(=O)NC3=O)c12` [Example 127, 1-(5-((1-(cyclohexylmethyl)piperidin-4-yl)methyl)-4-methylpyrazolo[1,5-a]pyridin-3-yl)dihydropyrimidine-2,4(1H,3H)-dione]: the Dmax at 25 µM turned out to be 69%, the remaining activity at 25 µM turned out to be 31% and the DC50 came out at 13 nM.
Take `O=C1CCN(c2cnn3ccc(CC4CCN(CC5CCCCC5)C4)cc23)C(=O)N1` (stereo not drawn) [Example 128]: the Dmax at 25 µM came out at 29%, the remaining activity at 25 µM came to 71% and the DC50 is 830 nM.
Take `O=C1CCN(c2cnn3ccc(CC4CCN(Cc5cccnc5)C4)cc23)C(=O)N1` (stereo not drawn) [Example 129]: the Dmax at 25 µM is 35%, the remaining activity at 25 µM came out at 65% and the DC50 came out at 800 nM.
As for `O=C1CCN(c2cnn3ccc(CC4CCN(CC5CCC5)C4)cc23)C(=O)N1` (stereo not drawn) [Example 130], the Dmax at 25 µM came out at 36%, the remaining activity at 25 µM turned out to be 64% and the DC50 worked out at 1320 nM.
Regarding `O=C1CCN(c2cnn3ccc(CC4CCN(Cc5cccc(F)c5)C4)cc23)C(=O)N1` (stereo not drawn) [Example 131], the Dmax at 25 µM came out at 38%, the remaining activity at 25 µM turned out to be 62% and the DC50 amounted to 370 nM.
As for `CC(C)CN1CCC(Cc2ccn3ncc(N4CCC(=O)NC4=O)c3c2)C1` (stereo not drawn) [Example 132], the Dmax at 25 µM amounted to 41%, the remaining activity at 25 µM amounted to 59% and the DC50 was 720 nM.
Turning to `O=C1CCN(c2cnn3ccc(CC4CNC4)cc23)C(=O)N1` [Example 133, 1-(5-(azetidin-3-ylmethyl)pyrazolo[1,5-a]pyridin-3-yl)dihydropyrimidine-2,4(1H,3H)-dione], the Dmax at 25 µM was determined as 21%, the remaining activity at 25 µM was 79% and the DC50 was 4800 nM.
As for `CC(C)CN1CC(Cc2ccn3ncc(N4CCC(=O)NC4=O)c3c2)C1` [Example 134, 1-(5-((1-isobutylazetidin-3-yl)methyl)pyrazolo[1,5-a]pyridin-3-yl)dihydropyrimidine-2,4(1H,3H)-dione], the Dmax at 25 µM stood at 27%, the remaining activity at 25 µM is 73% and the DC50 is 4300 nM.
`O=C1CCN(c2cnn3ccc(CC4CN(CC5CCCCC5)C4)cc23)C(=O)N1` [Example 135, 1-(5-((1-(cyclohexylmethyl)azetidin-3-yl)methyl)pyrazolo[1,5-a]pyridin-3-yl)dihydropyrimidine-2,4(1H,3H)-dione]: the Dmax at 25 µM is 26%, the remaining activity at 25 µM is 74% and the DC50 worked out at 2100 nM.
Regarding `CC(C)(C1CCOCC1)N1CCC(Cc2ccn3ncc(N4CCC(=O)NC4=O)c3c2)CC1` [Example 136, 1-(5-((1-(2-(tetrahydro-2H-pyran-4-yl)propan-2-yl)piperidin-4-yl)methyl)pyrazolo[1,5-a]pyridin-3-yl)dihydropyrimidine-2,4(1H,3H)-dione], the Dmax at 25 µM came out at 86%, the remaining activity at 25 µM is 14% and the DC50 was 33 nM.
For `CC(C)(CC1CCOCC1)N1CCC(Cc2ccn3ncc(N4CCC(=O)NC4=O)c3c2)CC1` [Example 137, 1-(5-((1-(2-methyl-1-(tetrahydro-2H-pyran-4-yl)propan-2-yl)piperidin-4-yl)methyl)pyrazolo[1,5-a]pyridin-3-yl)dihydropyrimidine-2,4(1H,3H)-dione], the Dmax at 25 µM stood at 77%, the remaining activity at 25 µM came to 23% and the DC50 was determined as 121 nM.
The like results for `CC(C)(C1CCC1)N1CCC(Cc2ccn3ncc(N4CCC(=O)NC4=O)c3c2)CC1` [Example 138, 1-(5-((1-(2-cyclobutylpropan-2-yl)piperidin-4-yl)methyl)pyrazolo[1,5-a]pyridin-3-yl)dihydropyrimidine-2,4(1H,3H)-dione] were, in that order, 80%, 20% and 100 nM.
